Source: patent US20240350643A1, “PROTEIN DEGRADATION AGENT” (SUZHOU KINTOR PHARMACEUTICALS, INC., priority 2021, published 2024)
Read-outs that look alike come from different tables or passages of the source.

Tests used:
HL60 cells = experiment: Anti-proliferation ability of compounds on HL60 cells (CTG); assay type: cell-based, human; settings: 3 days, CellTiter-Glo, read-out: HL60 cells Proliferation inhibitory activity
Procedure, shortened: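 HL60 cells (20000/well) exposed to serially diluted compounds (0.1% DMSO vehicle control) for 3 days. Viability read by CellTiter-Glo luminescence; IC50 fitted from inhibition rates.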

c-Myc protein = biological target: T1, c-Myc protein (Homo sapiens, UniProt P01106); experiment: Ability of compounds to degrade c-Myc protein in HL60 cells (ELISA); assay type: cell-based; settings: HL-60, 1 μM compound, 24 h, read-out: HL60 cells Protein degradation rate (1 μM)
T1 construct: endogenous in cells; host or cells: HL60 cells
T1 sequence (P01106 whole entry): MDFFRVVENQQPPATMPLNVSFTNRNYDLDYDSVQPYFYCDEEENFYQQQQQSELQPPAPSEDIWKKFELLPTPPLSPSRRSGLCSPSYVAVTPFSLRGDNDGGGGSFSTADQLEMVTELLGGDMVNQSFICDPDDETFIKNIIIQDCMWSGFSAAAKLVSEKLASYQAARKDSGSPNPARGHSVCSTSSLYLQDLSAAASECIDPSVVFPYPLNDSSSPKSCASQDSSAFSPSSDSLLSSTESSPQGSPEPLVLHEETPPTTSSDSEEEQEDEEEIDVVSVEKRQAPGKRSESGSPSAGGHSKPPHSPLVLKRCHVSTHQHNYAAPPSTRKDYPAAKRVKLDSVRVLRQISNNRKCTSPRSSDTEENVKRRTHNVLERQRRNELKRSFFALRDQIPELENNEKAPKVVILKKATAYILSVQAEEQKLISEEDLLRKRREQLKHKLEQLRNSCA

Compound	IC50 (HL60 cells; Homo sapiens, HL-60, 72 h) [nM]	inhibition at 1 µM (c-Myc protein) [%]	IC50 (HL60 cells) [nM]
COc1cc(CNC(=O)c2ccc3c(c2)C(=O)N(C2CCC(=O)NC2=O)C3=O)ccc1CNC(=O)Cn1c2ccccc2c2cccnc21 (centres unmarked) [A116]	5.5 ± 3.3	60 to 90	–
O=C(Cc1nccc2ccccc12)NCc1ccc(CNC(=O)c2ccc3c(c2)CN(C2CCC(=O)NC2=O)C3=O)c(F)c1 (centres unmarked) [A158]	3.3 ± 0.3	30 to 60	–
CN(CCc1cccc2ccccc12)C1(c2ccc(CNC(=O)c3ccc4c(c3)C(=O)N(C3CCC(=O)NC3=O)C4=O)cc2)CC1 (centres unmarked) [A143]	22.9 ± 3	60 to 90	–
O=C(Cn1c2ccccc2c2cccnc21)NCc1csc(CNC(=O)c2ccc3c(c2)C(=O)N(C2CCC(=O)NC2=O)C3=O)n1 (centres unmarked) [A136]	211 ± 45.9	60 to 90	–
O=C(Cc1cccc2ccccc12)NCc1ccc(CNCc2ccc3c(c2)CN(C2CCC(=O)NC2=O)C3=O)c(F)c1 (centres unmarked) [A196]	0.5 ± 0.1	60 to 90	–
O=C1CCC(N2C(=O)c3ccc(C(=O)NC[C@H]4CC[C@H](CNC(=O)Nc5cncc6ccccc56)CC4)cc3C2=O)C(=O)N1 (some centres unmarked) [A52]	8060 ± 637	30 to 60	–
O=C1CCC(N2C(=O)c3ccc(C(=O)NC[C@H]4CC[C@H](CNC(=O)Nc5cccc6ccncc56)CC4)cc3C2=O)C(=O)N1 (some centres unmarked) [A48]	3579 ± 29	60 to 90	–
O=C(Cn1c2ccccc2c2cccnc21)NCc1ccc(CNC(=O)c2ccc3c(c2)CN(C2CCC(=O)NC2=O)C3=O)c(C(F)(F)F)c1 (centres unmarked) [A160]	–	60 to 90	0.4 ± 0.3
CN(CCc1cccc2ccccc12)Cc1ccc(CC(=O)Nc2ccc3c(c2)CN(C2CCC(=O)NC2=O)C3=O)cc1 (centres unmarked) [A205]	0.2 ± 0.1	60 to 90	–
CN(CCc1cccc2ccccc12)Cc1ccc(CNC(=O)c2ccc3c(c2)C(=O)N(C2CCC(=O)NC2=O)C3=O)c(F)c1 (centres unmarked) [A105]	8.3 ± 1.9	60 to 90	–
O=C1CCC(N2C(=O)c3ccc(C(=O)NCCCCCCNC(=O)n4c5ccccc5c5ccccc54)cc3C2=O)C(=O)N1 (centres unmarked) [A12]	1060 ± 62	30 to 60	–
CN(CCc1ccc(Cl)c(Cl)c1)Cc1ccc(CNCc2ccc3c(c2)C(=O)N(C2CCC(=O)NC2=O)C3=O)cc1 (centres unmarked) [A184]	11.9 ± 5.5	60 to 90	–
O=C(Cn1c2ccccc2c2cccnc21)NCc1cccc(CNC(=O)c2ccc3c(c2)C(=O)N(C2CCC(=O)NC2=O)C3=O)c1 (centres unmarked) [A38]	66.2 ± 14.6	30 to 60	–
CN(CCc1cccc2ccccc12)Cc1ccc(CNC(=O)c2ccc3c(c2)C(=O)N(C2CCC(=O)NC2=O)C3=O)nc1 (centres unmarked) [A126]	8.5 ± 0.4	60 to 90	–
CN(CCc1cccc2ccccc12)Cc1ccc(C2(NC(=O)c3ccc4c(c3)C(=O)N(C3CCC(=O)NC3=O)C4=O)CC2)cc1 (centres unmarked) [A139]	22.5 ± 14.3	60 to 90	–
O=C(Cc1cccc2ccccc12)NCCCCCCCCNc1ccc2c(c1)C(=O)N(C1CCC(=O)NC1=O)C2=O (centres unmarked) [A15]	16.3 ± 3.3	60 to 90	–
O=C(Cc1ccccc1Cl)NCc1ccc(CNC(=O)c2ccc3c(c2)C(=O)N(C2CCC(=O)NC2=O)C3=O)cc1 (centres unmarked) [A57]	214 ± 4.7	60 to 90	–
O=C(Cn1c2ccccc2c2cccnc21)NCCc1ccc(CNC(=O)c2ccc3c(c2)C(=O)N(C2CCC(=O)NC2=O)C3=O)cc1 (centres unmarked) [A41]	155 ± 8.9	60 to 90	–
COc1cc(CNC(=O)Cc2cccc3ccccc23)ccc1CNC(=O)c1ccc2c(c1)C(=O)N(C1CCC(=O)NC1=O)C2=O (centres unmarked) [A111]	57.6 ± 25.9	60 to 90	–
O=C(Cc1cccc2ccccc12)NCc1ccc(CNC(=O)c2ccc3c(c2)CN(C2CCC(=O)NC2=O)C3=O)c(C(F)(F)F)c1 (centres unmarked) [A159]	2.2 ± 0.8	60 to 90	–
O=C(Cc1cccc2ccccc12)NC[C@H]1CC[C@H](CNC(=O)c2ccc3c(c2)C(=O)N(C2CCC(=O)NC2=O)C3=O)CC1 (some centres unmarked) [A22]	29.2 ± 14.4	30 to 60	–
O=C(Cc1cccc2ccccc12)NCc1ccc(CNCc2ccc3c(c2)C(=O)N(C2CCC(=O)NC2=O)C3=O)c(F)c1 (centres unmarked) [A189]	5.6 ± 1	60 to 90	–
O=C(CN1CCCc2ccccc21)NCc1ccc(CNC(=O)c2ccc3c(c2)CN(C2CCC(=O)NC2=O)C3=O)cc1 (centres unmarked) [A200]	2.5 ± 1	60 to 90	–
O=C(Cc1cccc2ccccc12)NCCc1ccc(NC(=O)c2ccc3c(c2)C(=O)N(C2CCC(=O)NC2=O)C3=O)cc1 (centres unmarked) [A39]	979 ± 80.2	60 to 90	–
O=C(Cn1c2ccccc2c2cccnc21)NCc1ccc(CNC(=O)c2ccc3c(c2)C(=O)N(C2CCC(=O)NC2=O)C3=O)cc1C(F)(F)F (centres unmarked) [A122]	5.9 ± 3.9	60 to 90	–
O=C1CCC(N2C(=O)c3ccc(C(=O)NCc4ccc(CNCCn5c6ccccc6c6cccnc65)cc4)cc3C2=O)C(=O)N1 (centres unmarked) [A74]	5.5 ± 2.3	60 to 90	–
CC(=O)N(CCc1cccc2ccccc12)Cc1ccc(CNC(=O)c2ccc3c(c2)C(=O)N(C2CCC(=O)NC2=O)C3=O)cc1 (centres unmarked) [A79]	21.7	60 to 90	–

More lines, in order of falling IC50 (HL60 cells; Homo sapiens, HL-60, 72 h), values ahead:

IC50 (HL60 cells; Homo sapiens, HL-60, 72 h) [nM]	inhibition at 1 µM (c-Myc protein) [%]	IC50 (HL60 cells) [nM]	Compound
5400 ± 683	30 to 60	–	O=C1CCC(N2C(=O)c3ccc(C(=O)NCc4ccc(NC(=O)Cc5cccc6ccccc56)cc4)cc3C2=O)C(=O)N1 (centres unmarked) [A44]
490 ± 64.9	60 to 90	–	O=C(Cn1c2ccccc2c2cccnc21)NCCCCCCCCCc1ccc2c(c1)C(=O)N(C1CCC(=O)NC1=O)C2=O (centres unmarked) [A20]
306 ± 73.8	60 to 90	–	O=C(Cc1cccc2ccccc12)NCCc1ccc(CNC(=O)c2ccc3c(c2)C(=O)N(C2CCC(=O)NC2=O)C3=O)cc1 (centres unmarked) [A40]
282 ± 27.5	60 to 90	–	O=C(Cn1c2ccccc2c2cccnc21)NCc1ccc(CCNC(=O)c2ccc3c(c2)C(=O)N(C2CCC(=O)NC2=O)C3=O)cc1 (centres unmarked) [A43]
279 ± 33.8	30 to 60	–	CN(Cc1ccc(CNC(=O)Cc2nccc3ccccc23)cc1)Cc1ccc2c(c1)C(=O)N(C1CCC(=O)NC1=O)C2=O (centres unmarked) [A188]
270 ± 126	30 to 60	–	O=C(Cn1c2ccccc2c2ccncc21)NC[C@H]1CC[C@H](CNC(=O)c2ccc3c(c2)C(=O)N(C2CCC(=O)NC2=O)C3=O)CC1 (some centres unmarked) [A25]
50.7 ± 11.4	30 to 60	–	O=C(Cn1c2ccccc2c2cccnc21)NCCCCCCNC(=O)c1ccc2c(c1)C(=O)N(C1CCC(=O)NC1=O)C2=O (centres unmarked) [A2]
48.5 ± 6	10 to 30	–	O=C(Cc1cccc(Cl)c1Cl)NCc1ccc(CNC(=O)c2ccc3c(c2)C(=O)N(C2CCC(=O)NC2=O)C3=O)cc1 (centres unmarked) [A60]
18.4 ± 7.4	60 to 90	–	CN(CCn1c2ccccc2c2cccnc21)C1(c2ccc(CNC(=O)c3ccc4c(c3)C(=O)N(C3CCC(=O)NC3=O)C4=O)cc2)CC1 (centres unmarked) [A144]
13.4 ± 3.3	30 to 60	–	O=C(Cc1cccc2ccc(F)cc12)NCc1ccc(CNC(=O)c2ccc3c(c2)C(=O)N(C2CCC(=O)NC2=O)C3=O)cc1 (centres unmarked) [A36]
1.9 ± 0.2	60 to 90	–	O=C(Cc1cccc2ccc(F)cc12)NCc1ccc(CNC(=O)c2ccc3c(c2)CN(C2CCC(=O)NC2=O)C3=O)c(C(F)(F)F)c1 (centres unmarked) [A162]
1.7 ± 1.3	60 to 90	–	O=C(Cn1c2ccccc2c2cccnc21)NCc1ccc(CNC(=O)c2ccc3c(c2)CN([C@H]2CCC(=O)NC2=O)C3=O)cc1 [A224]
1.3 ± 0.2	60 to 90	–	O=C(Cn1c2ccccc2c2cccnc21)NCc1ccc(CNC(=O)c2ccc3c(c2)CN([C@@H]2CCC(=O)NC2=O)C3=O)cc1 [A225]
